Calls of active or inactive are those of the source. Unless noted, no cut-off for these calls is given here.
Experiments:
[1] = biological target: T1, Sentrin-specific protease 8 (Homo sapiens, UniProt Q96LD8); assay: SENP8 protease inhibitors, SAR follow-up, biochemical, luminescence, set 2 (AID 588601); type: functional
T1 sequence (Q96LD8 whole entry): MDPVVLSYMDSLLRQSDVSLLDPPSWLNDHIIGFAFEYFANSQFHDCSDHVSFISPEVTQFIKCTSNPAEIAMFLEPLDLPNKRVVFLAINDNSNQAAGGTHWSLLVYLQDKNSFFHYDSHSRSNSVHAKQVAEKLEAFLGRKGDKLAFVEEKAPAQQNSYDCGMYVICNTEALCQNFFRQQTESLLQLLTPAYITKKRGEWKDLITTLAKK

[2] = biological target: T2, Sentrin-specific protease 7 (Homo sapiens, UniProt Q9BQF6); assay: SENP7 protease inhibitors, SAR follow-up, biochemical, luminescence, set 2 (AID 588600); type: functional
T2 sequence (Q9BQF6 whole entry): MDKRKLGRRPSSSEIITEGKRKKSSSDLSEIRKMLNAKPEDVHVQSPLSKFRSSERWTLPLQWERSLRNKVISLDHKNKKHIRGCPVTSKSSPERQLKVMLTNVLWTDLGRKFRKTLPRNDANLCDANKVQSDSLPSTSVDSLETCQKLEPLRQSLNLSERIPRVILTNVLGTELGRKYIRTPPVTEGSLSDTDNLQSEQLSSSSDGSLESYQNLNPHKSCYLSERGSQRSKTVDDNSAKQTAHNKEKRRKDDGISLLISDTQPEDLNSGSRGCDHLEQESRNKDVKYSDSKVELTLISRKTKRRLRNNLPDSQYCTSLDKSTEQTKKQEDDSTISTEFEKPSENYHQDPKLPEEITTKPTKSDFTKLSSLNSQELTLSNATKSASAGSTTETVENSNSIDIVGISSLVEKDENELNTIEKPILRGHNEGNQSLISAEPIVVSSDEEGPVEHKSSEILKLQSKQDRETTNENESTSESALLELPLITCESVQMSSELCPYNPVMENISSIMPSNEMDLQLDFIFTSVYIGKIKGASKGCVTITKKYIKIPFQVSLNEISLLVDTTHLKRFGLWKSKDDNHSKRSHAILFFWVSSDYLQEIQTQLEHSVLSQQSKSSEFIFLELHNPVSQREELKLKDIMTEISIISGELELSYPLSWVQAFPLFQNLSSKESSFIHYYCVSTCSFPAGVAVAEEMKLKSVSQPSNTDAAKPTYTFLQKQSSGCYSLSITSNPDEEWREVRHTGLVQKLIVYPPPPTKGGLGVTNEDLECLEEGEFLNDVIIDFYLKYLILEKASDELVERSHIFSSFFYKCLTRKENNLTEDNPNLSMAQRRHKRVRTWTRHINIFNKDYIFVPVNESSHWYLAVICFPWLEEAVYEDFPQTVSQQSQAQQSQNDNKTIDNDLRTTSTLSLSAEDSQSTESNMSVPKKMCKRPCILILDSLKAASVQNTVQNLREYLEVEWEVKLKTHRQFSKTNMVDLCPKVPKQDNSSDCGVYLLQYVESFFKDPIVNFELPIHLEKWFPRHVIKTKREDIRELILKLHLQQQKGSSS

Caspase-3 = biological target: T3, Caspase-3 (Homo sapiens, UniProt P42574); assay: caspase-3 inhibitors as off-family protease, SAR follow-up, selectivity assay for SENP protease inhibitor project, biochemical, luminescence, set 2 (AID 588599); type: functional
T3 sequence (P42574 whole entry): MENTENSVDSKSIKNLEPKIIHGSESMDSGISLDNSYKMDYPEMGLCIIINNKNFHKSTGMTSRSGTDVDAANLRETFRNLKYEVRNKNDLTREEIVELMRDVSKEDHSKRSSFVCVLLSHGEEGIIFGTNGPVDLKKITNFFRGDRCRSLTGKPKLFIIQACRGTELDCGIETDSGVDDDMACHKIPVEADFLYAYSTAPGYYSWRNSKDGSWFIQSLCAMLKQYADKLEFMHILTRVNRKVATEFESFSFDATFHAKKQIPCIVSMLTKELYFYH

[3] = biological target: T4, Sentrin-specific protease 6 (Homo sapiens, UniProt Q9GZR1); assay: SENP6 protease inhibitors, SAR follow-up, biochemical, luminescence, set 2 (AID 588598); type: functional
T4 sequence (Q9GZR1 whole entry): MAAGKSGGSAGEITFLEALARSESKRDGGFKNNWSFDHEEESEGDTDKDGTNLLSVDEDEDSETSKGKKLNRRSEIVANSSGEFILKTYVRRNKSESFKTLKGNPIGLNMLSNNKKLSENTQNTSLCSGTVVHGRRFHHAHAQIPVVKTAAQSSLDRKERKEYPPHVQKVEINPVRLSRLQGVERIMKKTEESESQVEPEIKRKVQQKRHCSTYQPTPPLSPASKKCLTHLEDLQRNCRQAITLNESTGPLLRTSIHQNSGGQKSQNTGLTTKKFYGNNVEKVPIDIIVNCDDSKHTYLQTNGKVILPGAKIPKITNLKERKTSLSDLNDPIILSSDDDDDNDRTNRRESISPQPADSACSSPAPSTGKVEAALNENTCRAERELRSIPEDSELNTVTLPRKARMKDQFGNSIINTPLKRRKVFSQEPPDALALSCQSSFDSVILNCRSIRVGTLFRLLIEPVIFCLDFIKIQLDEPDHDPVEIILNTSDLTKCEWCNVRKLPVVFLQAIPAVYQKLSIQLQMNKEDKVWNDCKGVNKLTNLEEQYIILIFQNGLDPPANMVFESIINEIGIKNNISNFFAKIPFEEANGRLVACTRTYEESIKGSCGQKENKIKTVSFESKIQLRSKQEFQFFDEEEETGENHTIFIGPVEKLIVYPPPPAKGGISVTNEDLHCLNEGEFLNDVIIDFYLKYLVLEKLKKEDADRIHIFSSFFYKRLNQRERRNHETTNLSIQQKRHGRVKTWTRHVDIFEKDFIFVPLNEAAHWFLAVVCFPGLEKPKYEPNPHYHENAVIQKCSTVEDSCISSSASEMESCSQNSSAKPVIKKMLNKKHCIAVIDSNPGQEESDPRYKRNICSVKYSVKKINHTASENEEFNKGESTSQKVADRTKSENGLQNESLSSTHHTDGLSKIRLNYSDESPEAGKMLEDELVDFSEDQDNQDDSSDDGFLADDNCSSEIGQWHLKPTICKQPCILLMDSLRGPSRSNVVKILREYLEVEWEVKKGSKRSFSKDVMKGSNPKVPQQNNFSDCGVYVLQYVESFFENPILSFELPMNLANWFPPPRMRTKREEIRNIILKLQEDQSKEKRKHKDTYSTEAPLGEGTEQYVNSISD

Prothrombin = Prothrombin (Bos taurus, UniProt P00735); assay: thrombin inhibition, dose response, biochemical, fluorescence polarization, uHTS hits (AID 602369); type: functional
[4] = biological target: 26S proteasome non-ATPase regulatory subunit 14 (Homo sapiens, UniProt O00487); assay: inhibition of proteasome subunit RPN11 – biochemical, fluorescence polarization, uHTS hits, confirmation (AID 602368); type: functional
[5] = biological target: 72 kDa type IV collagenase (Homo sapiens, UniProt P08253); assay: Dose Response validation of uHTS RPN11 inhibitor hits using a MMP-2 Fluorescence assay.; type: functional
[6] = biological target: T5, V-type proton ATPase subunit c' (Saccharomyces cerevisiae S288c, UniProt P32842); assay: Dose Response of Small Molecules that Regulate V-ATPase Proton Transport in Yeast using pHLuorin, Cherry Pick 2.; type: functional; conditions: read-out: EC50_MICROM
T5 sequence (P32842 whole entry): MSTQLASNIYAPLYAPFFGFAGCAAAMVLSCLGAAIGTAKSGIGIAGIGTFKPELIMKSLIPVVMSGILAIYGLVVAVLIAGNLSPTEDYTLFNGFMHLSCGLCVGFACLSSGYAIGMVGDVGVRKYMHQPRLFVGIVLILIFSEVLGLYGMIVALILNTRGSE

[7] = cytotoxicity toward NIH3T3 fibroblasts, dose response, counter-screen, cell-based, ATP luminescence, mouse fibroblasts (AID 2010); type: functional;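 note: cells exposed to compound for about 90 hours before reading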
[8] = inhibitors of intracellular T. cruzi replication, confirmation, NIH3T3 host cells, beta-gal luminescence (AID 2044); type: functional, cell-based;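 note: intracellular parasites grown in NIH/3T3 mouse fibroblasts as host cells; luminescent beta-galactosidase reporter signal from transgenic T. cruzi replicating inside host cells; inhibitors lower the luminescence signal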
[9] = biological target: T5, V-type proton ATPase subunit c'; assay: Dose Response with BCECF Assay for V-ATPase inhibitors that increase vacuolar pH, Powder Set 1.; type: functional; conditions: read-out: EC50_MICROM
[10] = biological target: T5, V-type proton ATPase subunit c'; assay: Dose Response of Small Molecules that Regulate V-ATPase Proton Transport in Yeast using pHLuorin, Powder Set1.; type: functional; conditions: read-out: EC50_MICROM
[11] = nonselective inhibitors of cellular cAMP signaling, dose response, counter-screen for MC4R biased antagonist project, cell-based, TR-FRET cAMP detection (AID 602305); type: functional;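 note: U2OS cells stimulated with forskolin near its EC80 as the cAMP inducer; potency is for inhibition of forskolin-stimulated cAMP signaling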
Melanocortin receptor 4 = Melanocortin receptor 4 (Homo sapiens, UniProt P32245); assay: MC4R antagonist potency on cAMP, dose response, cell-based, TR-FRET, biased antagonists (AID 602298); type: functional;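 note: antagonist potency against agonist-stimulated cAMP production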
HEK293 [12] = assay: cytotoxicity in HEK293T NF-kB-Luc cells, SAR follow-up, cytotoxicity control for NF-kB activator project, cell-based, resazurin fluorescence (AID 493251); type: functional; conditions: Homo sapiens
HEK293 [13] = assay: SAR Analysis of small molecule inhibitors of both B-cell and T-cell specific antigen receptor-induced NF-kB activation in a HEK-293T cell line using a luminescence assay. [Related pubchem assays (depositor defined):AID435003, AID435022, AID465, AID489019, AID489029]; type: functional, cell-based; conditions: Homo sapiens
Jurkat = assay: SAR Analysis of small molecule inhibitors of both B-cell and T-cell specific antigen receptor-induced NF-kB activation in a Jurkat cell line using a luminescence assay. [Related pubchem assays (depositor defined):AID435003, AID435022, AID465, AID489029]; type: functional, cell-based; conditions: Homo sapiens
[14] = SAR analysis of small molecule activators of Apaf-1 using a LZ-Caspase-9/Caspase-3 Fluorescent Selectivity assay - Set 2.; type: functional; conditions: read-out: EC50_Mean
[15] = biological target: T6, Apoptotic protease-activating factor 1 (Homo sapiens, UniProt O14727); assay: SAR analysis of small molecule Activators of Apaf-1 in a Fluorescent assay - set 2.; type: functional; conditions: read-out: EC50_Mean
T6 sequence (O14727 whole entry): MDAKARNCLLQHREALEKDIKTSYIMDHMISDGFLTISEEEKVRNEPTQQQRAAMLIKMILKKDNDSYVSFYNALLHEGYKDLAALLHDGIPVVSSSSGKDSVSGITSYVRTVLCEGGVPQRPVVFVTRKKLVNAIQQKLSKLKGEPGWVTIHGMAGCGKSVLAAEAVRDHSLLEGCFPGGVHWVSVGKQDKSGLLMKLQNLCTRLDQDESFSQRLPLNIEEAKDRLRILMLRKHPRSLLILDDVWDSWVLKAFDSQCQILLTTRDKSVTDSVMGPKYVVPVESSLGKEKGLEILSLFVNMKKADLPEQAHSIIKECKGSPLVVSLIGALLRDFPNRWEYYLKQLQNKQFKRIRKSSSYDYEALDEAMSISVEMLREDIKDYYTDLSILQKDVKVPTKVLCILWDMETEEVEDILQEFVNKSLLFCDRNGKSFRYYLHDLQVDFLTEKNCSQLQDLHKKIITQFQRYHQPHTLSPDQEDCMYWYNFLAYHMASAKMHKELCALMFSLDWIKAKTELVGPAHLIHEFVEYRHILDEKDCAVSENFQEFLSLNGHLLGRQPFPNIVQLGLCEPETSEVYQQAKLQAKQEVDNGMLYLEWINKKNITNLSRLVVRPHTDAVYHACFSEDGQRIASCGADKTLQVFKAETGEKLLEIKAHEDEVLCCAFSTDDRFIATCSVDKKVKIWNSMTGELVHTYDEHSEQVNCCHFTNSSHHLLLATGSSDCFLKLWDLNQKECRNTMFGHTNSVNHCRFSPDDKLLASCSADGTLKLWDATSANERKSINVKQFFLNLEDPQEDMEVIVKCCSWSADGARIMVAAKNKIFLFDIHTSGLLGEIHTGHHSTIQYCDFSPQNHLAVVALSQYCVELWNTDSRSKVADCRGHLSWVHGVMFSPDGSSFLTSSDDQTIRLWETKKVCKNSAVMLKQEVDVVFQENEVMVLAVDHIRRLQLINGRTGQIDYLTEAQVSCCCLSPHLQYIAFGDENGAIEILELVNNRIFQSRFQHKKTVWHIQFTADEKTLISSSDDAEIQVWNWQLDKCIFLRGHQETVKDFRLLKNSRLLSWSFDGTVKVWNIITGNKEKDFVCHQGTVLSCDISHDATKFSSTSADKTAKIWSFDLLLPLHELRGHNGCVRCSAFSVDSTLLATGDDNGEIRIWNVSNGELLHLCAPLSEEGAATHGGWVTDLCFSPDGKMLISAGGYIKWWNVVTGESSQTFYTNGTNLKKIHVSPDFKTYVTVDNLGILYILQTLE

[16] = biological target: Melanin-concentrating hormone receptor 1 (Homo sapiens, UniProt Q99705); assay: Late-stage fluorescence-based counterscreen for antagonists of the G-protein coupled receptor 7 (GPR7): cell-based dose response assay to identify antagonists of the melanin-concentrating hormone receptor 1 (MCHR1) Set 6.; type: functional
Candida albicans [17] = assay: reversal of fluconazole resistance in C. albicans, dose response, CaCi-2 strain, Alamar Blue, dry powder, set 3 (AID 488907); type: functional, organism-based
Candida albicans [18] = assay: growth inhibition of azole-resistant C. albicans, dose response, CaCi-8 strain, Alamar Blue, dry powder, set 3 (AID 488905); type: functional, organism-based

26S proteasome non-ATPase regulatory subunit 14, sequence (O00487 whole entry): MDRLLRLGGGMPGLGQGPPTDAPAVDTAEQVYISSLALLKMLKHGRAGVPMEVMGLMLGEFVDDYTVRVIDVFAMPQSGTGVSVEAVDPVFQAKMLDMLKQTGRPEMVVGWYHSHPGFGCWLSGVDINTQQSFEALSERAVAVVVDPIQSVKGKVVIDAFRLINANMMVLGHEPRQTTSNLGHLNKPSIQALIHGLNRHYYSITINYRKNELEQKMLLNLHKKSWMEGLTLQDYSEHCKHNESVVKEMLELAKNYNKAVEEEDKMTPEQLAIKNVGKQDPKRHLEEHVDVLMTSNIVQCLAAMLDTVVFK
Melanin-concentrating hormone receptor 1, sequence (Q99705 whole entry): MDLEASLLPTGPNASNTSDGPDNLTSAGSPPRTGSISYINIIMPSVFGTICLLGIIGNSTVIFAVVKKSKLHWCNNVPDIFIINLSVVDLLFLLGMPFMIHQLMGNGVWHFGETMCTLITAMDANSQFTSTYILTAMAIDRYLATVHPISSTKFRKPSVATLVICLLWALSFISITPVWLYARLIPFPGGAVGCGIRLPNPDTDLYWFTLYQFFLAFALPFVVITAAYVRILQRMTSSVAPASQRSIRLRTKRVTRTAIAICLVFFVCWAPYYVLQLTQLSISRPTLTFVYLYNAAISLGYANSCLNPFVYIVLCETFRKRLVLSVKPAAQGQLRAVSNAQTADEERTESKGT
72 kDa type IV collagenase, sequence (P08253 whole entry): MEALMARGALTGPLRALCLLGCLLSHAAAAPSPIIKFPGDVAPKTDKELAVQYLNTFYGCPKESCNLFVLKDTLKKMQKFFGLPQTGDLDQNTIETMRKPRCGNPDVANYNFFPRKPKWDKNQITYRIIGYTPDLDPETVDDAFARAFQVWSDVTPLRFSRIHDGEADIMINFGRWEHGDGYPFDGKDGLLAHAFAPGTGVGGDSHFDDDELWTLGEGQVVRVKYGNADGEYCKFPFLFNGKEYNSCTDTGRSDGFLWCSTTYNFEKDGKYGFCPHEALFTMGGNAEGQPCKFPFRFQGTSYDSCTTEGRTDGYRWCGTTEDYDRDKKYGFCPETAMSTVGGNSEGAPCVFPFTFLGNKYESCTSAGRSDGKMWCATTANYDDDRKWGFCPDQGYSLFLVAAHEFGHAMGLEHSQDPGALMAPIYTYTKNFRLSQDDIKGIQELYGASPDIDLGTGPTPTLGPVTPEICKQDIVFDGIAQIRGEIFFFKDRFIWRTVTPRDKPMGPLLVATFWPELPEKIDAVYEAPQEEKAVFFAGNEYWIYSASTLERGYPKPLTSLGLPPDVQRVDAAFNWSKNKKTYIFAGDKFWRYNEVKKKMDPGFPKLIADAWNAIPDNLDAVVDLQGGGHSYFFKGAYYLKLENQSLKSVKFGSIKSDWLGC
Melanocortin receptor 4, sequence (P32245 whole entry): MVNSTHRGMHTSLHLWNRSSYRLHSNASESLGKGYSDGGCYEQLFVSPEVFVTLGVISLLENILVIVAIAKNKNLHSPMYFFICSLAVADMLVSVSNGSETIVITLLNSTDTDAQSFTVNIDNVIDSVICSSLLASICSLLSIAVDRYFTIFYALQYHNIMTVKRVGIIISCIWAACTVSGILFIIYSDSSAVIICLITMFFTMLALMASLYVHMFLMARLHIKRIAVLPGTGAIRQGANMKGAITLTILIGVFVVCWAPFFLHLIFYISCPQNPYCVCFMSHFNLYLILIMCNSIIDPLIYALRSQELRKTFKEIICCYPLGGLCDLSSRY

CN(C(=O)c1cccc(Br)c1)c1nc2ccccc2s1
IC50 [1]: > 99 µM (inactive) | IC50 [2]: > 99 µM (inactive) | IC50 (Caspase-3): > 99 µM (inactive) | IC50 [3]: > 99 µM (inactive)

O=[N+]([O-])c1ccc(N/N=C/c2sc(N3CCOCC3)nc2-c2ccccc2)c(S(=O)(=O)Nc2ccccc2Cl)c1
IC50 (Prothrombin): 0.564 µM (active) | IC50 [4]: 0.658 µM (active) | IC50 [5]: > 100 µM (inactive)

O=C(c1ccc([N+](=O)[O-])o1)N1CCN(c2nc3c(F)cc(F)cc3s2)CC1
EC50 [6]: 8.9 µM (active) | EC50 [7]: 22.4 µM (active) | EC50 [8]: 0.466 µM (active) | EC50 [9]: 0.39 µM (active) | EC50 [10]: 1.93 µM (active)

CC(=O)Oc1ccc2nc(-c3ccc(Br)o3)oc(=O)c2c1
IC50 [11]: > 64.6 µM (inactive) | IC50 (Melanocortin receptor 4): > 64.6 µM (inactive)

COc1cc(NS(=O)(=O)c2ccccc2)c2ncccc2c1
IC50 (HEK293 [12]): 59.5 µM (inactive) | IC50 (HEK293 [13]): 70.7 µM (inactive) | IC50 (Jurkat): 1.32 µM (active)

COc1ccc(OC)c(C2=NOC(C(=O)O)C2)c1 (configuration not stated)
EC50 [14]: > 100 µM (inactive) | EC50 [15]: > 100 µM (inactive)

COC(=O)c1ccccc1Cn1ncc(Cl)c(Oc2ccc(OC)cc2)c1=O
IC50 [16]: 1.16 µM (active)

Cc1ccc(N2CCN(C(=O)c3ccc(Cl)cc3)CC2)nc1
AC50 (Candida albicans [17]): 0.413 µM (active) | AC50 (Candida albicans [18]): 25.4 µM (active)
